Laboratory results taken from patent publication US5527697A, “7-amino-3-methoxymethyl-3-cephem-4-carboxylic ester hydrolase, process for its preparation, and its use” (Hoechst Aktiengesellschaft, priority 1992, dated 1996).
Structures can show the parent of a compound that is named as a salt.

Experiments:
[1] = system: esterase according to the invention (MACA-ester hydrolase); assay: substrate specificity of the esterase according to the invention; type: biochemical
Source text: Following partial purification, the enzyme can be bound without difficulty, for example to the enzyme carrier VA-Epoxy-Biosynth®. The activity is normally determined by conversion of MACA-ester to MACA. HPLC or TLC is then employed for the quantitative evaluation of the amount of MACA that is formed.
The following table contains further information concerning the substrate specificity of the esterase according to the invention: […]

[2] = system: immobilized enzyme (MACA-ester hydrolase); assay: cleavage of MACA ester (R) with immobilized esterase; type: biochemical, Nocardia sp. ATCC 53492; settings: within 6-8 hours; pH 6.8, 30° C.; 5 g substrate, 100 g moist immobilized enzyme
Experimental: 2.5 g of R-ester hydrochloride are dissolved in 800 ml of 50 mM potassium phosphate solution, pH=6.8. 100 g of moist, immobilized enzyme are then added with stirring. The pH is kept at 6.8 and the temperature at 30° C. Further 1.25 g amounts of substrate are added after 2.5 h and after 41/4 h. In all, the mixture contains 5 g of MACA ester (R). The cleavage proceeds within the space of 6-8 hours to 95% conversion according to HPLC. The cleavage solution is separated from the enzyme and lyophilized. About 10 g of a white solid are obtained.

[3] = substrate concentration 100 mM, relative to MACA ester pro J = 100
[4] = substrate concentration 2.5 mM, MACA ester pro J = 100
[5] = substrate concentration 1.59 mM, HEPES, pH 6.95
[6] = substrate concentration 2.5 mM, phosphate buffer, pH 6.8

Activity U/mg ([1]; substrate concentration 100 mM)	Activity U/ml ([1]; substrate concentration 100 mM)	Activity % [1, 3]	SMILES	also measured
			CC(OC(=O)C(C)(C)C)OC(=O)C(C)(C)C	Activity U/mg ([1]; substrate concentration 50 mM): 3.5 U/mg; Activity U/ml ([1]; substrate concentration 50 mM): 1.4 U/ml; Activity % ([1]; substrate concentration 50 mM, relative to MACA ester pro J = 100): 4%
40 U/mg	16 U/ml	45.5%	CCOC(=O)C(C)N (racemic) [D,L-alanine ethyl ester]	
75 U/mg	30 U/ml	85.2%	CCOC(=O)C(C)Cl (stereo not shown) [Ethyl 2-chloro-propionate, ethyl 2-chloropropionate]	
50 U/mg	20 U/ml	56.8%	CCOC(=O)CC [Ethyl propionate]	
			COCC1=C(C(=O)O[C@H](C)OC(=O)C(C)(C)C)N2C(=O)C(N)[C@@H]2SC1 (stereo partly drawn) [MACA ester pro J, (1R,S)-1-(2,2-dimethylpropionyloxy)-ethyl 7-amino-3-methoxymethyl-3-cephem-4-carboxylate]	Activity U/mg ([1]; substrate concentration 2.5 mM): 87.75 U/mg; Activity U/ml ([1]; substrate concentration 2.5 mM): 35.2 U/ml; Activity % [1, 4]: 100%
			COCC1=C(C(=O)O[C@H](C)OC(=O)C(C)(C)C)N2C(=O)C(N)[C@@H]2SC1 (stereo partly drawn) [MACA ester pro K, (1R,S)-1-(2,2-dimethylpropionyloxy)-ethyl 7-amino-3-methoxymethyl-3-cephem-4-carboxylate]	Activity U/mg ([1]; substrate concentration 2.5 mM): 87.75 U/mg; Activity U/ml ([1]; substrate concentration 2.5 mM): 35.1 U/ml; Activity % [1, 4]: 99.7%
			COCC1=C(C(=O)O[C@H](C)OC(=O)C(C)(C)C)N2C(=O)[C@@H](N)[C@H]2SC1 [R-ester hydrochloride]	conversion according to HPLC [2]: 95%
92.75 U/mg	37.1 U/ml	105.4%	CC(=O)OCC(COC(C)=O)OC(C)=O [Triacetin]	
93.75 U/mg	37.5 U/ml	106.5%	CCCC(=O)OCC(COC(=O)CCC)OC(=O)CCC [Tributyrin]	
			CC(=O)Oc1ccc([N+](=O)[O-])cc1 [p-Nitrophenyl acetate, p-nitrophenyl acetate]	Activity U/mg [1, 5]: 76.0 U/mg; Activity U/ml [1, 5]: 30.4 U/ml; Activity % ([1]; substrate concentration 1.59 mM, HEPES, pH 6.95, relative to MACA ester pro J = 100): 86.4%; Activity U/mg [1, 6]: 108.75 U/mg; Activity U/ml [1, 6]: 43.5 U/ml; Activity % ([1]; substrate concentration 2.5 mM, phosphate buffer, pH 6.8, relative to MACA ester pro J = 100): 123.6%

SMILES	Activity U/mg ([1]; substrate concentration 100 mM)	Activity U/ml ([1]; substrate concentration 100 mM)	Activity % [1, 3]	also measured
CCOC(=O)C(C)(C)C [Ethyl pivalate]	42.75 U/mg	17.1 U/ml	48.6%	
